Test results from ChEMBL document CHEMBL1201862, “PubChem BioAssay data set” (2004).
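96-well plates; 48 h exposure; 5 concentrations. Endpoints by linear interpolation between flanking doses. Not reached: highest tested concentration assigned. Abbreviation: GI50, concentration required for 50% inhibition of growth.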 Activity calls are given as the source filed them. Rule as the data show it: active = GI50 up to about 1.1 µM and inactive = higher.

Columns and labels:
Assay in all cases: DTP human tumour cell line panel, 48 h
M14 = system: M14
SN12C = system: SN12C
UACC-257 = system: UACC-257
SF-539 = system: SF-539
SF-295 = system: SF-295
NCI/ADR-RES = system: NCI/ADR-RES
Hs-578T = system: Hs-578T
NCI-H226 = system: NCI-H226
U-251 = system: U-251
A498 = system: A498
MDA-MB-231 = system: MDA-MB-231
SW-620 = system: SW-620
OVCAR-4 = system: OVCAR-4
MOLT-4 = system: MOLT-4
SK-MEL-28 = system: SK-MEL-28
OVCAR-3 = system: OVCAR-3
T47D = system: T47D
NCI-H522 = system: NCI-H522
IGROV-1 = system: IGROV-1
RPMI-8226 = system: RPMI-8226

Measured: GI50

N=C(N)SCc1ccc(Cl)cc1Cl.O=[N+]([O-])c1c(O)c(Cl)cc(Cl)c1Cl
inactive: M14 11.4 µM | SN12C 11.9 µM | UACC-257 7.73 µM | SF-539 12.9 µM | SF-295 13.5 µM | NCI/ADR-RES 19.5 µM | Hs-578T 20.7 µM | NCI-H226 20.5 µM | U-251 14.8 µM | A498 13.3 µM | MDA-MB-231 10.7 µM | SW-620 15.2 µM | OVCAR-4 12 µM | MOLT-4 7.4 µM | SK-MEL-28 28.9 µM | OVCAR-3 13.1 µM | T47D 9.82 µM | NCI-H522 10.3 µM | IGROV-1 17.8 µM | RPMI-8226 1.81 µM

O=C(O)CC1(C(=O)O)CCCCC1
inactive: M14 > 100 µM | SN12C > 100 µM | UACC-257 > 100 µM | SF-539 > 100 µM | SF-295 > 100 µM | NCI/ADR-RES > 100 µM | Hs-578T > 100 µM | NCI-H226 > 100 µM | U-251 > 100 µM | A498 > 100 µM | MDA-MB-231 > 100 µM | SW-620 > 100 µM | OVCAR-4 > 100 µM | MOLT-4 > 100 µM | SK-MEL-28 > 100 µM | OVCAR-3 > 100 µM | T47D > 100 µM | NCI-H522 > 100 µM | IGROV-1 > 100 µM | RPMI-8226 > 100 µM

O=C1CC(=O)NC(NNS(=O)(=O)c2ccc(Cl)cc2)=N1
inactive: M14 > 100 µM | SN12C > 100 µM | UACC-257 > 100 µM | SF-539 > 100 µM | SF-295 > 100 µM | NCI/ADR-RES > 100 µM | Hs-578T > 100 µM | NCI-H226 > 100 µM | U-251 > 100 µM | A498 > 100 µM | MDA-MB-231 > 100 µM | SW-620 > 100 µM | OVCAR-4 > 100 µM | MOLT-4 > 100 µM | SK-MEL-28 > 100 µM | OVCAR-3 > 100 µM | T47D > 100 µM | NCI-H522 > 100 µM | IGROV-1 > 100 µM | RPMI-8226 > 100 µM

COC(=O)C1Cc2cc3c(cc2C1=O)CCC3 (stereo not given)
inactive: M14 > 100 µM | SN12C 90.6 µM | UACC-257 > 100 µM | SF-539 > 100 µM | SF-295 > 100 µM | NCI/ADR-RES > 100 µM | Hs-578T > 100 µM | NCI-H226 > 100 µM | U-251 > 100 µM | A498 > 100 µM | MDA-MB-231 > 100 µM | SW-620 > 100 µM | OVCAR-4 42.1 µM | MOLT-4 68.7 µM | SK-MEL-28 > 100 µM | OVCAR-3 > 100 µM | T47D > 100 µM | NCI-H522 > 100 µM | IGROV-1 > 100 µM | RPMI-8226 > 100 µM

N=C(N)NS(=O)(=O)c1ccc(NC(=O)c2cccc3c(O)c4ccccc4nc23)cc1
inactive: M14 > 100 µM | SN12C > 100 µM | UACC-257 > 100 µM | SF-539 > 78.3 µM | SF-295 60.3 µM | NCI/ADR-RES > 100 µM | Hs-578T > 100 µM | NCI-H226 > 100 µM | U-251 48 µM | A498 > 76.4 µM | MDA-MB-231 > 100 µM | SW-620 > 100 µM | OVCAR-4 > 100 µM | MOLT-4 > 83 µM | SK-MEL-28 > 100 µM | OVCAR-3 > 100 µM | T47D > 100 µM | NCI-H522 > 100 µM | IGROV-1 81.5 µM | RPMI-8226 > 100 µM

CC(C)(C)OC(=O)NCC(O)CNC(=O)OC(C)(C)C
inactive: M14 > 100 µM | SN12C > 100 µM | UACC-257 > 100 µM | SF-539 > 100 µM | SF-295 > 100 µM | NCI/ADR-RES > 100 µM | Hs-578T > 100 µM | NCI-H226 > 100 µM | U-251 > 100 µM | A498 > 100 µM | MDA-MB-231 > 100 µM | SW-620 > 100 µM | OVCAR-4 > 100 µM | MOLT-4 > 100 µM | SK-MEL-28 > 100 µM | OVCAR-3 > 100 µM | T47D > 100 µM | NCI-H522 > 100 µM | IGROV-1 > 100 µM | RPMI-8226 > 100 µM

N#Cc1c(O)c(/C=N/c2ccc(Cl)cc2)c(=O)n2c1[nH]c1ccccc12
inactive: M14 > 100 µM | SN12C > 100 µM | UACC-257 > 100 µM | SF-539 > 100 µM | SF-295 > 100 µM | NCI/ADR-RES > 100 µM | Hs-578T > 100 µM | NCI-H226 > 100 µM | U-251 > 100 µM | A498 > 100 µM | MDA-MB-231 > 100 µM | SW-620 > 100 µM | OVCAR-4 > 100 µM | MOLT-4 > 100 µM | SK-MEL-28 > 100 µM | OVCAR-3 > 100 µM | T47D > 100 µM | NCI-H522 > 100 µM | IGROV-1 > 100 µM | RPMI-8226 > 100 µM

N#C/C(N)=C(\C#N)NC(=O)C(=O)N/C(C#N)=C(\N)C#N
inactive: M14 > 100 µM | SN12C > 100 µM | UACC-257 > 100 µM | SF-539 > 100 µM | SF-295 57.8 µM | NCI/ADR-RES > 100 µM | Hs-578T > 100 µM | NCI-H226 > 100 µM | U-251 > 100 µM | A498 > 100 µM | MDA-MB-231 > 100 µM | SW-620 > 100 µM | OVCAR-4 > 100 µM | MOLT-4 63.1 µM | SK-MEL-28 > 100 µM | OVCAR-3 13 µM | T47D > 100 µM | NCI-H522 > 100 µM | IGROV-1 > 100 µM | RPMI-8226 > 100 µM

O=C(NC(N1CCN(c2cc3c(cc2F)c(=O)c(C(=O)O)cn3C2CC2)CC1)(C(F)(F)F)C(F)(F)F)c1ccccc1
inactive: M14 47.4 µM | SN12C 36.1 µM | UACC-257 26.8 µM | SF-539 22 µM | SF-295 40.6 µM | NCI/ADR-RES 46 µM | Hs-578T 40.9 µM | NCI-H226 34.1 µM | U-251 37.3 µM | A498 30.4 µM | MDA-MB-231 22.2 µM | SW-620 40.5 µM | OVCAR-4 35.2 µM | MOLT-4 26.1 µM | SK-MEL-28 55.8 µM | OVCAR-3 43.5 µM | T47D 35.6 µM | NCI-H522 17.7 µM | IGROV-1 36.3 µM | RPMI-8226 27.7 µM

Nc1ncnc2c1ccn2COC(CO)CO
inactive: M14 79.6 µM | SN12C > 100 µM | UACC-257 > 100 µM | SF-539 > 100 µM | SF-295 > 100 µM | NCI/ADR-RES > 100 µM | Hs-578T > 100 µM | NCI-H226 46.2 µM | U-251 > 100 µM | A498 > 100 µM | MDA-MB-231 > 100 µM | SW-620 > 100 µM | OVCAR-4 > 100 µM | MOLT-4 51.9 µM | SK-MEL-28 > 100 µM | OVCAR-3 > 100 µM | T47D > 100 µM | NCI-H522 54.7 µM | IGROV-1 > 100 µM | RPMI-8226 97.1 µM
